{"source": "patent US20050124618A1", "about": "“Methods of modulating angiogenesis and cancer cell proliferation” (priority 2003, published 2005)", "key": {"[1]": {"tested_on": "extensor digitorum longus (EDL) and tibialis anterior (TA) muscles", "assay": "Vessel density of EDL and TA muscles after 7 days of electrical stimulation", "format": "in vivo, rat", "description": "Experimental protocols and tissue preparation: After a 24-h recovery period, the implanted stimulator was activated by momentary closure of the magnetic reed switch using a small hand-held magnet. […] Contractions of the extensor digitorum longus (EDL) and tibialis anterior (TA) muscles were automatically initiated at 9 AM each day and sustained for 8 h/day over a consecutive 7-day period. At the end of the stimulation period, the animals were euthanized by an overdose of pentobarbital sodium (100 mg/kg ip), and the EDL and TA muscles were harvested for analysis as previously described (Greene A S et al., Hypertension 15: 779-783, 1990; and Parmentier J H et al., Hypertension 37: 623-629, 2001).\nTissue harvest and morphological analysis of vessel density: The stimulated and contralateral muscles were removed, weighed, and rinsed in physiological salt solution. A 300-mg sample was taken from the rostral portion of the TA muscle and frozen in liquid nitrogen for Western blot (100 mg) and HPLC (200 mg) analysis for measurement of VEGF protein expression and 20-HETE formation, respectively. The remaining TA and EDL muscles were lightly fixed in a 0.25% formalin solution overnight. The muscles were sectioned via a manual microtome to a thickness of about 100 μm by securing the tendons and slicing parallel to the longitudinal orientation of the muscle fibers. From every animal, two slices of each EDL muscle and three slices of each TA muscle were made. The slices were than immersed for 2 h in a solution of 25 μg/ml rhodamine-labeled Griffonia simplicifolia I (GS-I) lectin (Sigma; St. Louis, Mo. (Greene A S et al., Hypertension 15: 779-783, 1990)). Immediately after this 2-h exposure to GS-I lectin, the muscles were rinsed in physiological solution. The rinsing procedure was repeated after 15 and 30 min, and the muscles were rinsed in physiological saline solution for 12 h (overnight, at 4° C.). On the next day, the slices were mounted on microscope slides with a water-soluble mounting medium consisting of toluene and acrylic resin (SP ACCU-MOUNT 280, Baxter Scientific).\nThe labeled sections were visualized using a video fluorescent microscope system (Olympus ULWD CD Plan, ×20 objective, 1.6 cm working distance and 0.4 numerical aperture) with epi-illumination, as previously described (Parmentier J H et al., Hypertension 37: 623-629, 2001). In the present study, 10-15 and 20-25 representative fields were selected for study from each EDL and TA muscle slice, respectively. Each field was converted to a digitized image (DT2801 Data Translation; Marlboro, Mass.) and stored as an 8-bit/pixel image file with a resolution of 512×512 pixels. Morphometric analysis of the scanned histochemical sections was done as previously described (Parmentier J H et al., Hypertension 37: 623-629, 2001).\nData analysis and statistics: For each muscle, the vessel counts of all the selected fields (10-15 scans×2 slices for each EDL muscle; 20-25 scans×3 slices for each TA muscle) were averaged to a single vessel density. Vessel density was expressed in terms of the mean number of vessel-grid intersections per microscope field (0.224 mm^2). For each experimental group, the measured vessel density and 20-HETE formation of the stimulated muscle was compared with its unstimulated counterpart as well as with age-matched controls. All values are presented as means±SE. The significance of differences in values measured in the same animal was evaluated using a two-factor ANOVA (drug×stimulation) with repeated measures on one factor (stimulation). Significant differences were further investigated using a post hoc test (Tukey's)."}, "[2]": {"tested_on": "U251 human glioma cells spheroids", "assay": "U251 spheroid-induced angiogenesis in the rat cornea pocket", "format": "in vivo", "details": "20 μg HET0016 pellet", "description": "(iii) U251 human glioma cells spheroids: U251 human glioma cells were generously provided by Dr. Stephen Brown (Dept. of Radiation Oncology, Henry Ford Health System, Detroit, Mich.). The cells were maintained in DMEM (Invitrogen) supplemented with 10% heat-inactivated fetal bovine serum, penicillin (10 IU/ml), streptomycin (10 μg/ml) and 10% non-essential amino acids and grown at 37° C. in a humidified incubator containing 5% CO2. U251 spheroids were obtained by a modification of the method of Carlsson and Yuhas (Carlsson J and Yuhas J M, Recent Results Cancer Res 1984, 95:1-23). […] Spheroid diameter was measured using a dissection microscope equipped with a ruler. […]\n(iv) Quantitation of corneal neovascularization: Seven days after pellet implantation, the rats were deeply anesthetized as previously described with ketamine and xylazine. […]\nNeovascularization was determined by comparing total vessel length in the control and experimental eyes. Vessel length was determined by tracing each vessel from the limbus to the pellet. Total length is the sum of these values in pixels and was determined using conventional image analysis software (Sigma Scan Pro, SPSS, Chicago, Ill.)\nFor these experiments, we used the human glioblastoma cancer cell line U251, known to be angiogenic (Hsu S C et al., Cancer Res 1996, 56:5684-91). […] Angiogenic responses were assessed 14 days after implantation of the spheroids."}, "[3]": {"details": "chronic treatment, 7 days electrical stimulation"}}, "note": "Entries after “also recorded” stand apart in the source; their conditions may differ.", "data": [{"compound": "CCCCc1ccc(N=CNO)c(C)c1", "note": "[HET0016, N-hydroxy-N′-(4-butyl-2 methylphenyl) formamidine]", "values": [{"measurement": "effect on the increase in vessel density (angiogenesis) induced by electrical stimulation", "setting": "[1]; 7 days, HET0016 2 mg kg−1 day−1, ABT 50 mg kg−1 day−1", "result": "completely blocked"}, {"measurement": "vessel density, EDL, unstimulated side", "setting": "[1]; chronic treatment, 7 days", "result": "116.0±1.0 number of vessel intersections"}, {"measurement": "vessel density, TA, unstimulated side", "setting": "[1]; chronic treatment, 7 days", "result": "105.7±4.9 number of vessel intersections"}, {"measurement": "vessel density, EDL, stimulated side", "setting": "[1]; [3]", "result": "118.0±10.1 number of vessel intersections"}, {"measurement": "vessel density, TA, stimulated side", "setting": "[1]; [3]", "result": "110.5±1.1 number of vessel intersections"}, {"measurement": "effect on corneal neovascularization induced by U251 spheroids", "setting": "[2]; 2 weeks", "result": "significantly inhibited; also recorded: decreases angiogenesis"}, {"measurement": "decrease of angiogenic responses to U251 spheroids", "setting": "[2]; 14 days after implantation", "result": "approximately 70%"}]}]}
